Measured values: US9163013B2, “Use of 1H-indazole-3-carboxamide compounds as glycogen synthase kinase 3 beta inhibitors” (AZIENDE CHIMICHE RIUNITE ANGELINI FRANCESCO A.C.R.A.F. …, priority 2012, dated 2015)
Where a name gives a salt, the structure may show the parent alone.

Experiments:
Experiment in all cases: Kinase selectivity panel
Type in all cases: biochemical
MEK1/MAP2K1 (h) = MEK1/MAP2K1 (h) (Homo sapiens (Human), UniProt Q02750); details: duplicate, read-out: % inhibition of control values, MEK1/MAP2K1 (h)
Method in brief: (§1)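 Recombinant human enzyme was first combined with its peptide substrate and ATP, then incubated at 22° C for 10, 15, 30, 60 or 90 minutes. Next, substrate phosphorylation was measured by LANCE or HTRF. Finally, activity at 10 μM compound (duplicate) was expressed relative to control.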

FGFR1 kinase (h) = FGFR1 kinase (h) (Homo sapiens (Human), UniProt P11362); details: duplicate, read-out: % inhibition of control values, FGFR1 kinase (h)
Chain of FGFR1 kinase (h) (P11362 22-822): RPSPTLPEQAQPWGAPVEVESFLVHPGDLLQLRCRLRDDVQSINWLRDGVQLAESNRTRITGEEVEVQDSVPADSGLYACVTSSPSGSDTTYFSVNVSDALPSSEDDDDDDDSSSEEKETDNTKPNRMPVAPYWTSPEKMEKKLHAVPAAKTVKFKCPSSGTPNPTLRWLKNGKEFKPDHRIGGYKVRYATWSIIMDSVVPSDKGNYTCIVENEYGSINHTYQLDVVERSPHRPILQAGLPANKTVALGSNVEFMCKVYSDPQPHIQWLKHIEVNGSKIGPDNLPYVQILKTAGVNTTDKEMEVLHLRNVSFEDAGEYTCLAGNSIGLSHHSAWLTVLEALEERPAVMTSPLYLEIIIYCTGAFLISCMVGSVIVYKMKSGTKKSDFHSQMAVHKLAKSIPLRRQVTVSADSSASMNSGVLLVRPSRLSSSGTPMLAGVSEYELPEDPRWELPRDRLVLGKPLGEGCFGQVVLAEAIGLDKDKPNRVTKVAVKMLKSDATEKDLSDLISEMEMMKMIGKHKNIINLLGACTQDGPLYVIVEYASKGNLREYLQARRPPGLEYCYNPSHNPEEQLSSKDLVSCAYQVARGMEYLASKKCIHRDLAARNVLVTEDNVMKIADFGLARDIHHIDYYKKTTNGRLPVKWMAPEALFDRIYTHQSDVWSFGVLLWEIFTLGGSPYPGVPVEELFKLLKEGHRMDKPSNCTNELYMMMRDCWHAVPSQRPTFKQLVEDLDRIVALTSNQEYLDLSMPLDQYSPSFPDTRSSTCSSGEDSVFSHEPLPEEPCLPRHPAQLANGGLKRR
Method in brief: as §1

p38alpha kinase (h) = p38alpha kinase (h) (Homo sapiens (Human), UniProt Q16539); details: duplicate, read-out: % inhibition of control values, p38alpha kinase (h)
Chain of p38alpha kinase (h) (Q16539 whole entry): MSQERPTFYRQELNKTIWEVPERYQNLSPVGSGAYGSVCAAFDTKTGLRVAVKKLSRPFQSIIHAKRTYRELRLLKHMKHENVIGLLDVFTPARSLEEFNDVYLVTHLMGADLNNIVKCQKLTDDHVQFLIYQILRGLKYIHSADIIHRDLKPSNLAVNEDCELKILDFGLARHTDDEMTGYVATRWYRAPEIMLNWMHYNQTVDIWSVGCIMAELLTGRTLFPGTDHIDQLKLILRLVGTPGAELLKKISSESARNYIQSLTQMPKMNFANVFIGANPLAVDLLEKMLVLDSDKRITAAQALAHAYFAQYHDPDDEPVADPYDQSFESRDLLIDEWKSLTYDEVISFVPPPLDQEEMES
Method in brief: as §1

Pim2 kinase (h) = Pim2 kinase (h) (Homo sapiens (Human), UniProt Q9P1W9); details: duplicate, read-out: % inhibition of control values, Pim2 kinase (h)
Chain of Pim2 kinase (h) (Q9P1W9 whole entry): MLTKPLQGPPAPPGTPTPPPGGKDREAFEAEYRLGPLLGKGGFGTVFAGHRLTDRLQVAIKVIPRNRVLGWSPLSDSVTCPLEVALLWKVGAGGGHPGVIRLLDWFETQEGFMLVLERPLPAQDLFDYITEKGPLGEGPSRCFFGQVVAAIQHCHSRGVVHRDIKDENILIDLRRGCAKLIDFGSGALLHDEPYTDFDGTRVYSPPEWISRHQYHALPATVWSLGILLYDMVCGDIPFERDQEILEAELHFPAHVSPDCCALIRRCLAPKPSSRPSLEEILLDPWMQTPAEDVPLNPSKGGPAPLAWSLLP
Method in brief: as §1

CaMK4 (h) = CaMK4 (h) (Homo sapiens (Human), UniProt Q16566); details: duplicate, read-out: % inhibition of control values, CaMK4 (h)
Method in brief: as §1

p38gamma kinase (h) = p38gamma kinase (h) (Homo sapiens (Human), UniProt P53778); details: duplicate, read-out: % inhibition of control values, p38gamma kinase (h)
Method in brief: as §1

MSK1 (h) = MSK1 (h) (Homo sapiens (Human), UniProt O75582); details: duplicate, read-out: % inhibition of control values, MSK1 (h)
Method in brief: as §1

mTOR kinase (h) (FRAP1) = mTOR kinase (h) (FRAP1) (Homo sapiens (Human), UniProt P42345); details: duplicate, read-out: % inhibition of control values, mTOR kinase (h) (FRAP1)
Method in brief: as §1

EphA4 kinase (h) = EphA4 kinase (h) (Homo sapiens (Human), UniProt P54764); details: duplicate, read-out: % inhibition of control values, EphA4 kinase (h)
Method in brief: as §1

smMLCK (h) (MYLK) = smMLCK (h) (MYLK) (Homo sapiens (Human), UniProt Q15746); details: duplicate, read-out: % inhibition of control values, smMLCK (h) (MYLK)
Method in brief: as §1

CDC2/CDK1 (h) (cycB) = CDC2/CDK1 (h) (cycB) (Homo sapiens (Human), UniProt P06493); details: duplicate, read-out: % inhibition of control values, CDC2/CDK1 (h) (cycB)
Chain of CDC2/CDK1 (h) (cycB) (P06493 whole entry): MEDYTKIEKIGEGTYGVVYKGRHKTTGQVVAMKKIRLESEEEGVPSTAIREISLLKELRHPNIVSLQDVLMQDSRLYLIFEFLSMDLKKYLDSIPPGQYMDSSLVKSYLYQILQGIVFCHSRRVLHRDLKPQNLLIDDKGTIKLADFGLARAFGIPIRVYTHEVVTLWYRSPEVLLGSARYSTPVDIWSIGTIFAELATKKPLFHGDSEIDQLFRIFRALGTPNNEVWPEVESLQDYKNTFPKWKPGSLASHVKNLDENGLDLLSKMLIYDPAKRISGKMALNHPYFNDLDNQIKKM
Chain of CDC2/CDK1 (h) (cycB) (P14635 whole entry partner): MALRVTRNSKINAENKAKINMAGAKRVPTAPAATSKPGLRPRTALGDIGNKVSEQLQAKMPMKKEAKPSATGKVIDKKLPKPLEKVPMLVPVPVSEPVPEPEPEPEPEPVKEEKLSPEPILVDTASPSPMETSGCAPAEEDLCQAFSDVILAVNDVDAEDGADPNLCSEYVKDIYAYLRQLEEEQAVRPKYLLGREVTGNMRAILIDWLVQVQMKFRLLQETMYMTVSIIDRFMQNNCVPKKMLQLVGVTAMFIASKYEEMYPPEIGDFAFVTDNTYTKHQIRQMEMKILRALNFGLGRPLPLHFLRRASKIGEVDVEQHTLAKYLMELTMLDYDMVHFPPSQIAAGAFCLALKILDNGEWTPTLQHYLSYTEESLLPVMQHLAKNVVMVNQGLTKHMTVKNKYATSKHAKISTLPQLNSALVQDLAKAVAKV
Method in brief: as §1

TRKA (h) = TRKA (h) (Homo sapiens (Human), UniProt P04629); details: duplicate, read-out: % inhibition of control values, TRKA (h)
Chain of TRKA (h) (P04629 33-796): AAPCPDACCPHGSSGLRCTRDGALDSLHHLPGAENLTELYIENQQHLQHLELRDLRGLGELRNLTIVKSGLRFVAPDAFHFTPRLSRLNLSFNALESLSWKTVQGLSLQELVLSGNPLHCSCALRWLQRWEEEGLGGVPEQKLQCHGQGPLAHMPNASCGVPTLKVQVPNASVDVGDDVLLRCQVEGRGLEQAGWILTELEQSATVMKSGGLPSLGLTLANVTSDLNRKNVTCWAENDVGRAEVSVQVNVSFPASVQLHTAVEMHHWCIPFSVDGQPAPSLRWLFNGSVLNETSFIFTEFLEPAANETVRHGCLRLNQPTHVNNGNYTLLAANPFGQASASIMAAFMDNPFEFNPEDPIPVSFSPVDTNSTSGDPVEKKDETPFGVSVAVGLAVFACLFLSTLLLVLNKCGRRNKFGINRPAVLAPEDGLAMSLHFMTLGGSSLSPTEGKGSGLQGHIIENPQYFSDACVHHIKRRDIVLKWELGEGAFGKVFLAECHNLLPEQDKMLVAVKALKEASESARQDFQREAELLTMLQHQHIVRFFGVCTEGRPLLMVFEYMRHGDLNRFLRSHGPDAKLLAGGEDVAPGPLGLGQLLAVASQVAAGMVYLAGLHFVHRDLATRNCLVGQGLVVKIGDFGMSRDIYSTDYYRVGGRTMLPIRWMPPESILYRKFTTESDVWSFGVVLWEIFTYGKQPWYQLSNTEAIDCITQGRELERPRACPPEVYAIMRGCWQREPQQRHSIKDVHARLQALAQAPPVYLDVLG
Method in brief: as §1

NEK1 (h) = NEK1 (h) (Homo sapiens (Human), UniProt Q96PY6); details: duplicate, read-out: % inhibition of control values, NEK1 (h)
Method in brief: as §1

RSK2 (h) = RSK2 (h) (Homo sapiens (Human), UniProt P51812); details: duplicate, read-out: % inhibition of control values, RSK2 (h)
Chain of RSK2 (h) (P51812 whole entry): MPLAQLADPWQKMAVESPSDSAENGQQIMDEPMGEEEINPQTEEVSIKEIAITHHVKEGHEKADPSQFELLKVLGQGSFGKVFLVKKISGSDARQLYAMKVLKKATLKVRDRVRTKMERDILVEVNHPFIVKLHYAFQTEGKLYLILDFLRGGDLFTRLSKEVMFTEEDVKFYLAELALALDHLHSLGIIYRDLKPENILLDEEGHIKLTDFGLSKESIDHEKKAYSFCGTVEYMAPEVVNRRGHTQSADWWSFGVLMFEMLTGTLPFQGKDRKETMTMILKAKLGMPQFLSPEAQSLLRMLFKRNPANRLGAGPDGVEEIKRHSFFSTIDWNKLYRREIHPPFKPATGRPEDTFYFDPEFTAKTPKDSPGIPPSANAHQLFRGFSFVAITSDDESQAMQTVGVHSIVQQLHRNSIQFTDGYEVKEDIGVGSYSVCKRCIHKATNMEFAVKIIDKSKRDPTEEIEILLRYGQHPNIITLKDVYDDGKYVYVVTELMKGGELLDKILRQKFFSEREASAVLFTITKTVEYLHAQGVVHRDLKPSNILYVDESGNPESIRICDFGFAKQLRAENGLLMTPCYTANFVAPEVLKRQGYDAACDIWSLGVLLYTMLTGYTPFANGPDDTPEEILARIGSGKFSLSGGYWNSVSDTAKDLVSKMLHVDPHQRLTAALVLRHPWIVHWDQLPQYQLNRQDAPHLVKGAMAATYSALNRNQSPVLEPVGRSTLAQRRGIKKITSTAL
Method in brief: as §1

MYT1 kinase (h) = MYT1 kinase (h) (Homo sapiens (Human), UniProt Q99640); details: duplicate, read-out: % inhibition of control values, MYT1 kinase (h)
Method in brief: as §1

ERK2 (h) (P42mapk) = ERK2 (h) (P42mapk) (Homo sapiens (Human), UniProt P28482); details: duplicate, read-out: % inhibition of control values, ERK2 (h) (P42mapk)
Method in brief: as §1

TAOK2 (TAO1) (h) = TAOK2 (TAO1) (h) (Homo sapiens (Human), UniProt Q9UL54); details: duplicate, read-out: % inhibition of control values, TAOK2 (TAO1) (h)
Chain of TAOK2 (TAO1) (h) (Q9UL54 whole entry): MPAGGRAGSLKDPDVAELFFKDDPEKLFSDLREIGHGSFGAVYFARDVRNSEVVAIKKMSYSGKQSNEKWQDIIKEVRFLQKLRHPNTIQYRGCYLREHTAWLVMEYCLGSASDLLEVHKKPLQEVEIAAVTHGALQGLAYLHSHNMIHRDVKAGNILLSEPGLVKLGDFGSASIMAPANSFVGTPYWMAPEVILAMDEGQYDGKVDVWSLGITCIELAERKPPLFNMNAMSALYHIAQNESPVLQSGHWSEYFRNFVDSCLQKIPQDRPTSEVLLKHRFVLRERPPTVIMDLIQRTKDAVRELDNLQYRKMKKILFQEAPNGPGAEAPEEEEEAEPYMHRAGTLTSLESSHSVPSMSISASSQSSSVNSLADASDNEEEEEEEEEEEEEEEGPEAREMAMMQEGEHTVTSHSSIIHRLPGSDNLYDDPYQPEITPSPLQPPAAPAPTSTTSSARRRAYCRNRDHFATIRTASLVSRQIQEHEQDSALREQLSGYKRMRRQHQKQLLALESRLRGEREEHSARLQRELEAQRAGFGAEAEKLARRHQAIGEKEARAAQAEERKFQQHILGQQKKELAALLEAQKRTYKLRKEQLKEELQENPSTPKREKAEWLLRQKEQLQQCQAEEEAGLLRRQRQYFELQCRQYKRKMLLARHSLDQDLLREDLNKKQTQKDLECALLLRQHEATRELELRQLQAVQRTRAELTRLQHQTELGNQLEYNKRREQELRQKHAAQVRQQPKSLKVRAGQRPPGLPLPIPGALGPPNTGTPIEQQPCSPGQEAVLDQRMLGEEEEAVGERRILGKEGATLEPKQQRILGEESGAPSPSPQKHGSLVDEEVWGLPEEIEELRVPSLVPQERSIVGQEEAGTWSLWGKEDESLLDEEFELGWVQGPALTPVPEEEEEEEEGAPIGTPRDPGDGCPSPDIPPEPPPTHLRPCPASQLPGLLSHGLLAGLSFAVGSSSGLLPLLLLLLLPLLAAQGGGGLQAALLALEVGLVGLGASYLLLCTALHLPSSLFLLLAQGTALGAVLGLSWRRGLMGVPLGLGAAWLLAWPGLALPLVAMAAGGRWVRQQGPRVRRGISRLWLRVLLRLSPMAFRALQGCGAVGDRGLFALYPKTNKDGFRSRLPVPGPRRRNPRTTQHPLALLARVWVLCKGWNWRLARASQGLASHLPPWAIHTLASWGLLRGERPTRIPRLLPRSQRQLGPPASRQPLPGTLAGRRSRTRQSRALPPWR
Method in brief: as §1

CK1alpha (h) = CK1alpha (h) (Homo sapiens (Human), UniProt P48729); details: duplicate, read-out: % inhibition of control values, CK1alpha (h)
Method in brief: as §1

Row | inhibition at 10 µM (MEK1/MAP2K1 (h)) [%] | inhibition at 10 µM (FGFR1 kinase (h)) [%] | inhibition at 10 µM (p38alpha kinase (h)) [%] | inhibition at 10 µM (Pim2 kinase (h)) [%] | inhibition at 10 µM (CaMK4 (h)) [%] | inhibition at 10 µM (p38gamma kinase (h)) [%] | inhibition at 10 µM (MSK1 (h)) [%] | inhibition at 10 µM (mTOR kinase (h) (FRAP1)) [%] | inhibition at 10 µM (EphA4 kinase (h)) [%] | inhibition at 10 µM (smMLCK (h) (MYLK)) [%] | inhibition at 10 µM (CDC2/CDK1 (h) (cycB)) [%] | inhibition at 10 µM (TRKA (h)) [%] | inhibition at 10 µM (NEK1 (h)) [%] | inhibition at 10 µM (RSK2 (h)) [%] | inhibition at 10 µM (MYT1 kinase (h)) [%] | inhibition at 10 µM (ERK2 (h) (P42mapk)) [%] | inhibition at 10 µM (TAOK2 (TAO1) (h)) [%] | inhibition at 10 µM (CK1alpha (h)) [%] | SMILES
1 | 25 | 6 | 0 | 4 | 14 | 2 | 8 | 0 | 0 | 0 | 31 | 10 | 1 | 3 | 1 | 33 | 41 | 15 | COc1ccc2[nH]nc(C(=O)NCC3CCN(CCc4ccc(O)cc4)CC3)c2c1 [Compound 1, N-({1-[2-(4-hydroxyphenyl)ethyl]-piperidin-4-yl}methyl)-5-methoxy-1H-indazole-3-carboxamide]
2 |  | 0 | 0 | 3 | 11 |  |  |  | 0 |  | 10 | 1 |  | 1 | 0 | 35 | 8 | 0 | COc1ccc2[nH]nc(C(=O)NCC3CCN(Cc4ccc(C(=O)O)o4)CC3)c2c1 [Compound 24, 5-{[4-({[(5-Methoxy-1H-indazol-3-yl)carbonyl]amino}methyl)piperidin-1-yl]methyl}furan-2-carboxylic acid]
3 |  | 13 | 1 | 5 | 13 |  |  |  | 2 |  | 99 | 4 |  | 20 | 0 | 89 | 54 | 2 | COc1ccncc1-c1ccc2[nH]nc(C(=O)NCC3CCN(Cc4ccc(C(=O)O)o4)CC3)c2c1 [Compound 21, 5-({4-[({[5-(4-Methoxypyridin-3-yl)-1H-indazol-3-yl]carbonyl}amino)methyl]piperidin-1-yl}methyl)furan-2-carboxylic acid formate]
